Here are results for 19 compounds from US20250230147A1, “LACTAMS AS CBL-B INHIBITORS” (Genentech, Inc., priority 2021, published 2025).

Assay [1] has as its target c-Cbl (Homo sapiens (Human), UniProt P22681). Briefly: C-Cbl LCK Ub TR-FRET assay (c-cbl Lck HTRF). The note with it: for (fold-selectivity): C-cbl Lck HTRF IC50 relative to Cbl-b Lck HTRF IC50. It counts as biochemical. In outline: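 Detection reagents added, brief spin, 20 min RT. IC50 fit normalized to no-LCK (low) and DMSO (high) controls.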
For assay [2], the target named is Cbl-b (Homo sapiens (Human), UniProt Q13191). Briefly: Cbl-b LCK Ub TR-FRET assay (Cbl-b Lck HTRF). The assay is classed as biochemical. The method, boiled down:
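TR-FRET (340 nm excitation, 615/665 nm emission) read after adding HA-ubiquitin–UBE2D2 thioester, anti-HA-D2 and streptavidin-Eu. Beforehand, compounds incubated 60 min with biotinylated Cbl-b, then 90 min with His-LCK and ATP (1 mM in 2× mix); IC50 from 10 concentrations, DMSO high and no-LCK low controls.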

pIC50: −log10 of the molar value.

c-Cbl, sequence (P22681 47-435): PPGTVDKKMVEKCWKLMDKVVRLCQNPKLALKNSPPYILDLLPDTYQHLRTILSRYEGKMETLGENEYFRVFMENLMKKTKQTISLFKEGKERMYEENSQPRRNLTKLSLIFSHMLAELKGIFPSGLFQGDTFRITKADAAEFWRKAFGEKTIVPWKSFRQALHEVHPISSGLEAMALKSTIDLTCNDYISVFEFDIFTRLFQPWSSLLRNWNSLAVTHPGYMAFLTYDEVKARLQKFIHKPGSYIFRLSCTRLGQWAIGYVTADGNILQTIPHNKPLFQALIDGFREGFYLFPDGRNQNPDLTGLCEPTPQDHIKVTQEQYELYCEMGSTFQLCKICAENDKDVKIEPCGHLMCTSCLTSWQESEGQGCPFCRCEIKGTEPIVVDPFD
Cbl-b, sequence (Q13191 40-426): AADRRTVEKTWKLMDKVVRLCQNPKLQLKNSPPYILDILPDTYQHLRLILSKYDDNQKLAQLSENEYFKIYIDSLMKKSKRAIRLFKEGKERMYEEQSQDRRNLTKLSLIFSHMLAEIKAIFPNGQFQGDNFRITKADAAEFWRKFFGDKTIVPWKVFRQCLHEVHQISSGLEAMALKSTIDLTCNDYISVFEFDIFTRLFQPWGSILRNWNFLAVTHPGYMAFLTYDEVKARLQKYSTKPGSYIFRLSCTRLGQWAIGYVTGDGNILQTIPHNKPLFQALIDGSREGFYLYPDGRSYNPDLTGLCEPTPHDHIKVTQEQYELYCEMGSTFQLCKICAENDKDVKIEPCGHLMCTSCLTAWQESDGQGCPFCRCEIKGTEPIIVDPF

As to `CC1CN(Cc2cc3c(c(C(F)(F)F)c2)CN(c2cccc(C4([C@H](F)c5nncn5C)COC4)c2)C3=O)CCCO1` (stereo partly drawn) [Compound 120, 2-(3-(3-((S)-fluoro(4-methyl-4H-1,2,4-triazol-3-yl)methyl)oxetan-3-yl)phenyl)-6-((2-methyl-1,4-oxazepan-4-yl)methyl)-4-(trifluoromethyl)isoindolin-1-one], the pIC50 – broadly, the negative decadic logarithm of the IC50, by convention in mol/L – in assay [1] was 7.36; in assay [2] it was 7.44. For the same compound, in assay [1], the “(fold-selectivity)” value is 1.2x.

As to `Cn1cnnc1[C@@H](F)C1(c2cccc(N3Cc4c(cc(CN5CC(C)(CO)C5)cc4C(F)(F)F)C3=O)c2)CC1` [Compound 125, (S)-2-(3-(1-(fluoro(4-methyl-4H-1,2,4-triazol-3-yl)methyl)cyclopropyl)phenyl)-6((3-(hydroxymethyl)-3-methylazetidin-1-yl)methyl)-4-(trifluoromethyl)isoindolin-1-one], the results for the pIC50 in assay [1] and in assay [2] were 6.62 and 6.85, respectively. The “(fold-selectivity)” value in assay [1] was 1.7x.

As for `Cn1cnnc1[C@H](F)C1(c2cccc(N3Cc4c(cc(CN5CC(C)(CO)C5)cc4C(F)(F)F)C3=O)c2)CC1` [Compound 126, (R)-2-(3-(1-(fluoro(4-methyl-4H-1,2,4-triazol-3-yl)methyl)cyclopropyl)phenyl)-6((3-(hydroxymethyl)-3-methylazetidin-1-yl)methyl)-4-(trifluoromethyl)isoindolin-1-one], the values for the pIC50 in assay [1] and in assay [2] were 7.03 and 7.19, respectively. In assay [1], the “(fold-selectivity)” value is recorded as 1.5x.

Take `CO[C@H]1CCN(Cc2cc3c(c(C(F)(F)F)c2)CN(c2cccc(C4([C@@H](F)c5nncn5C)COC4)c2)C3=O)C1` [Compound 131, 2-(3-(3-((R)-fluoro(4-methyl-4H-1,2,4-triazol-3-yl)methyl)oxetan-3-yl)phenyl)-6-(((S)-3-methoxypyrrolidin-1-yl)methyl)-4-(trifluoromethyl)isoindolin-1-one]: the pIC50 is 6.77 in assay [1] and 7.23 in assay [2]. Besides, in assay [1], the “(fold-selectivity)” value is reported as 2.9x.

Turning to `CO[C@H]1CCN(Cc2cc3c(c(C(F)(F)F)c2)CN(c2cccc(C4([C@H](F)c5nncn5C)COC4)c2)C3=O)C1` [Compound 132, 2-(3-(3-((S)-fluoro(4-methyl-4H-1,2,4-triazol-3-yl)methyl)oxetan-3-yl)phenyl)-6-(((S)-3-methoxypyrrolidin-1-yl)methyl)-4-(trifluoromethyl)isoindolin-1-one], in assay [1], the pIC50 was 6.33 and the “(fold-selectivity)” value is given as 2.1x. Also, in assay [2], the pIC50 was 6.64.

In the case of `Cn1cnnc1[C@H](F)C1(c2cccc(N3Cc4c(cc(CN5CCC(F)(CO)CC5)cc4C(F)(F)F)C3=O)c2)COC1` [Compound 133, (R)-2-(3-(3-(fluoro(4-methyl-4H-1,2,4-triazol-3-yl)methyl)oxetan-3-yl)phenyl)-6-((4-fluoro-4-(hydroxymethyl)piperidin-1-yl)methyl)-4-(trifluoromethyl)isoindolin-1-one], in assay [1], the negative logarithm of the IC50 (pIC50) is 6.77 and the “(fold-selectivity)” value turned out to be 1.9x. This compound had a negative logarithm of the IC50 (pIC50) in assay [2] of 7.05.

For the compound `Cn1cnnc1[C@@H](F)C1(c2cccc(N3Cc4c(cc(CN5CCC(F)(CO)CC5)cc4C(F)(F)F)C3=O)c2)COC1` [Compound 134, (S)-2-(3-(3-(fluoro(4-methyl-4H-1,2,4-triazol-3-yl)methyl)oxetan-3-yl)phenyl)-6-((4-fluoro-4-(hydroxymethyl)piperidin-1-yl)methyl)-4-(trifluoromethyl)isoindolin-1-one], in assay [1], the pIC50 is 6.17 and the “(fold-selectivity)” value was determined as 3.3x. In assay [2], the negative logarithm of the IC50 (pIC50) was 6.68.

Turning to `COCC1(F)CN(Cc2cc3c(c(C(F)(F)F)c2)CN(c2cccc(C4([C@@H](F)c5nncn5C)COC4)c2)C3=O)C1` [Compound 135, (R)-2-(3-(3-(fluoro(4-methyl-4H-1,2,4-triazol-3-yl)methyl)oxetan-3-yl)phenyl)-6-((3-fluoro-3-(methoxymethyl)azetidin-1-yl)methyl)-4-(trifluoromethyl)isoindolin-1-one], in assay [1], the negative-log IC50 (pIC50) was 6.74 and the “(fold-selectivity)” value was determined as 1.9x. In assay [2], this compound had a negative logarithm of the IC50 (pIC50) of 7.02.

With `COCC1(F)CN(Cc2cc3c(c(C(F)(F)F)c2)CN(c2cccc(C4([C@H](F)c5nncn5C)COC4)c2)C3=O)C1` [Compound 136, (S)-2-(3-(3-(fluoro(4-methyl-4H-1,2,4-triazol-3-yl)methyl)oxetan-3-yl)phenyl)-6-((3-fluoro-3-(methoxymethyl)azetidin-1-yl)methyl)-4-(trifluoromethyl)isoindolin-1-one], in assay [1], the pIC50 was 6.25 and the “(fold-selectivity)” value turned out to be 2.0x. The compound further showed a negative-log IC50 (pIC50) in assay [2] of 6.55.

In the case of `Cn1cnnc1[C@H](F)C1(c2cccc(N3Cc4c(cc(CN5CC(C(F)F)C5)cc4C(F)(F)F)C3=O)c2)COC1` [Compound 137, (R)-6-((3-(difluoromethyl)azetidin-1-yl)methyl)-2-(3-(3-(fluoro(4-methyl-4H-1,2,4-triazol-3-yl)methyl)oxetan-3-yl)phenyl)-4-(trifluoromethyl)isoindolin-1-one], in assay [1], the pIC50 is 7.24 and the “(fold-selectivity)” value is recorded as 1.9x. The same compound showed a pIC50 in assay [2] of 7.54.

For the compound `Cn1cnnc1[C@@H](F)C1(c2cccc(N3Cc4c(cc(CN5CC(C(F)F)C5)cc4C(F)(F)F)C3=O)c2)COC1` [Compound 138, (S)-6-((3-(difluoromethyl)azetidin-1-yl)methyl)-2-(3-(3-(fluoro(4-methyl-4H-1,2,4-triazol-3-yl)methyl)oxetan-3-yl)phenyl)-4-(trifluoromethyl)isoindolin-1-one], the negative logarithm of the IC50 (pIC50) was 6.74 in assay [1] and 7.01 in assay [2]. In assay [1], the “(fold-selectivity)” value came to 1.8x.

For the compound `Cn1cnnc1[C@H](F)C1(c2cccc(N3Cc4c(cc(CN5CC6(CCO6)C5)cc4C(F)(F)F)C3=O)c2)COC1` [Compound 139, (R)-6-(1-oxa-6-azaspiro[3.3]heptan-6-ylmethyl)-2-(3-(3-(fluoro(4-methyl-4H-1,2,4-triazol-3-yl)methyl)oxetan-3-yl)phenyl)-4-(trifluoromethyl)isoindolin-1-one], in assay [1], the pIC50 is 6.19 and the “(fold-selectivity)” value was 2.8x. In assay [2], this compound gave a pIC50 of 6.64.

On to `Cn1cnnc1[C@@H](F)C1(c2cccc(N3Cc4c(cc(CN5CC6(CCO6)C5)cc4C(F)(F)F)C3=O)c2)COC1` [Compound 140, (S)-6-(1-oxa-6-azaspiro[3.3]heptan-6-ylmethyl)-2-(3-(3-(fluoro(4-methyl-4H-1,2,4-triazol-3-yl)methyl)oxetan-3-yl)phenyl)-4-(trifluoromethyl)isoindolin-1-one], for which, in assay [1], the negative-log IC50 (pIC50) was 6.01 and the “(fold-selectivity)” value was 2.8x. In assay [2], this compound gave a pIC50 of 6.42.

In the case of `Cn1cnnc1[C@H](F)C1(c2cccc(N3Cc4c(cc(CN5CCC(C)(O)CC5)cc4C(F)(F)F)C3=O)c2)COC1` [Compound 141, (R)-2-(3-(3-(fluoro(4-methyl-4H-1,2,4-triazol-3-yl)methyl)oxetan-3-yl)phenyl)-6-((4-hydroxy-4-methylpiperidin-1-yl)methyl)-4-(trifluoromethyl)isoindolin-1-one], in assay [1], the pIC50 was 6.92 and the “(fold-selectivity)” value was found to be 1.3x. The same compound showed a pIC50 in assay [2] of 7.04.

On to `Cn1cnnc1[C@@H](F)C1(c2cccc(N3Cc4c(cc(CN5CCC(C)(O)CC5)cc4C(F)(F)F)C3=O)c2)COC1` [Compound 142, (S)-2-(3-(3-(fluoro(4-methyl-4H-1,2,4-triazol-3-yl)methyl)oxetan-3-yl)phenyl)-6-((4-hydroxy-4-methylpiperidin-1-yl)methyl)-4-(trifluoromethyl)isoindolin-1-one], for which, in assay [1], the negative logarithm of the IC50 (pIC50) is 6.37 and the “(fold-selectivity)” value is recorded as 1.9x. For the same compound, in assay [2], the pIC50 is 6.64.

In the case of `Cn1cnnc1[C@H](F)C1(c2cccc(N3Cc4c(cc(CN5CCC[C@H](CO)C5)cc4C(F)(F)F)C3=O)c2)COC1` [Compound 143, 2-(3-(3-((R)-fluoro(4-methyl-4H-1,2,4-triazol-3-yl)methyl)oxetan-3-yl)phenyl)-6-(((S)-3-(hydroxymethyl)piperidin-1-yl)methyl)-4-(trifluoromethyl)isoindolin-1-one], in assay [1], the pIC50 was 7.57 and the “(fold-selectivity)” value is reported as 0.92x. In assay [2], this compound had a pIC50 of 7.54.

Regarding `Cn1cnnc1[C@@H](F)C1(c2cccc(N3Cc4c(cc(CN5CCC[C@H](CO)C5)cc4C(F)(F)F)C3=O)c2)COC1` [Compound 144, 2-(3-(3-((S)-fluoro(4-methyl-4H-1,2,4-triazol-3-yl)methyl)oxetan-3-yl)phenyl)-6-(((S)-3-(hydroxymethyl)piperidin-1-yl)methyl)-4-(trifluoromethyl)isoindolin-1-one], in assay [1], the pIC50 is 7.18 and the “(fold-selectivity)” value stood at 0.91x. This compound gave a negative-log IC50 (pIC50) in assay [2] of 7.14.

Take `COCC1CCN(Cc2cc3c(c(C(F)(F)F)c2)CN(c2cccc(C4([C@@H](F)c5nncn5C)COC4)c2)C3=O)CC1` [Compound 145, (R)-2-(3-(3-(fluoro(4-methyl-4H-1,2,4-triazol-3-yl)methyl)oxetan-3-yl)phenyl)-6-((4-(methoxymethyl)piperidin-1-yl)methyl)-4-(trifluoromethyl)isoindolin-1-one]: the negative logarithm of the IC50 (pIC50) in assay [1] was 6.74; in assay [2], 6.89. Also, the “(fold-selectivity)” value in assay [1] is on record as 1.4x.

Consider `COCC1CCN(Cc2cc3c(c(C(F)(F)F)c2)CN(c2cccc(C4([C@H](F)c5nncn5C)COC4)c2)C3=O)CC1` [Compound 146, (S)-2-(3-(3-(fluoro(4-methyl-4H-1,2,4-triazol-3-yl)methyl)oxetan-3-yl)phenyl)-6-((4-(methoxymethyl)piperidin-1-yl)methyl)-4-(trifluoromethyl)isoindolin-1-one], for which, in assay [1], the pIC50 was 6.32 and the “(fold-selectivity)” value is listed as 1.1x. Also, in assay [2], the pIC50 was 6.37.
